ChEMBL document CHEMBL4400538, “Discovery of Carboline Derivatives as Potent Antifungal Agents for the Treatment of Cryptococcal Meningitis” (J Med Chem, 2019)
In brackets after ≈: the same amount, converted by molar mass. Activity calls are given as the source filed them. The rule behind the calls is not given here.

Legend:
Cryptococcus neoformans [1] = assay: Antifungal activity against Cryptococcus neoformans H99 after 48 hrs by growth curve assay; format: functional; settings: for MIC80: var grubii H99 
Nannizzia gypsea = assay: Antifungal activity against Microsporum gypseum MZC after 48 hrs by spectrophotometery; format: functional
Candida parapsilosis = assay: Antifungal activity against Candida parapsilosis 5008 after 48 hrs by spectrophotometery; format: functional; settings: Lodderomyces parapsilosis, 5008, 48 h
Candida albicans [2] = assay: Antifungal activity against Candida albicans 0304103 after 48 hrs by spectrophotometery; format: functional; settings: Candida albicans, 0304103, 48 h
Cryptococcus neoformans [3] = assay: Antifungal activity against Cryptococcus neoformans ATCC 34877 after 72 hrs by spectrophotometery; format: functional; settings: ATCC 34877, 72 h
Nakaseomyces glabratus = assay: Antifungal activity against Candida glabrata 8535 after 48 hrs by spectrophotometery; format: functional; settings: Nakaseomyces glabratus, 8535, 48 h
Candida albicans [4] = assay: Antifungal activity against Candida albicans 7781 after 48 hrs by spectrophotometery; format: functional; settings: Candida albicans, 7781, 48 h
Aspergillus fumigatus = assay: Antifungal activity against Aspergillus fumigatus 7544 after 48 hrs by spectrophotometery; format: functional; settings: Aspergillus fumigatus, 7544, 48 h
Trichophyton rubrum = assay: Antifungal activity against Trichophyton rubrum TIA after 48 hrs by spectrophotometery; format: functional
[5] = Half life in ICR mouse liver microsomes at 1 uM measured up to 45 mins in presence of NADPH by LC-MS/MS analysis; format: ADME, Microsome
Cryptococcus neoformans [6] = assay: Inhibition of melanin production in Cryptococcus neoformans H99 at 2.5 ug/ml; format: functional, organism-based; settings: var grubii H99
[7] = Clearance in ICR mouse liver microsomes at 1 uM measured up to 45 mins in presence of NADPH by LC-MS/MS analysis; format: ADME, Microsome; settings: 0.75 h
[8] = Solubility of the compound; format: physicochemical
Cryptococcus neoformans [9] = assay: Inhibition of urease production in Cryptococcus neoformans H99 at 10 ug/ml; format: functional, organism-based; settings: var grubii H99
Cryptococcus gattii = assay: Antifungal activity against Cryptococcus gattii ATCC 14116 after 72 hrs by spectrophotometery; settings: ATCC 14116, 72 h
Cryptococcus neoformans [10] = assay: Antifungal activity against Cryptococcus neoformans H99 assessed as inhibition of microbial growth at 8 ug/ml after 12 to 48 hrs by growth curve assay; format: functional; settings: var grubii H99, read-out: GI
Cryptococcus neoformans [11] = assay: Antifungal activity against Cryptococcus neoformans H99 after 72 hrs by growth curve assay; format: functional; settings: var grubii H99 
HUVEC = assay: Cytotoxicity against human HUVEC; format: cell-based
Cryptococcus neoformans [12] = assay: Antibiofilm activity against Cryptococcus neoformans H99 at 16 ug/ml after 90 mins by XTT assay; format: functional, organism-based; settings: var grubii H99
[13] = Protein binding in mouse plasma; format: ADME, cell-free
Cryptococcus neoformans [14] = assay: Antifungal activity against Cryptococcus neoformans H99 assessed as up-regulation of Cdc25C expression at 2 to 4 ug/ml after 24 hrs by Western blot analysis; format: functional, organism-based; settings: var grubii H99
Cryptococcus neoformans [15] = assay: Antibiofilm activity against Cryptococcus neoformans H99 assessed as inhibition of cellular surface hydrophobicity at 10 ug/ml incubated for 24 hrs by water-hydrocarbon two-phase assay; format: functional, organism-based; settings: var grubii H99
Cryptococcus neoformans [16] = assay: Antifungal activity against Cryptococcus neoformans H99 assessed as fragmented nuclei at 4 ug/ml after 24 hrs by TEM analysis; format: functional, organism-based; settings: var grubii H99
Cryptococcus neoformans [17] = assay: Antifungal activity against Cryptococcus neoformans H99 assessed as up-regulation of cyclin B1 expression at 2 to 4 ug/ml after 24 hrs by Western blot analysis; format: functional, organism-based; settings: var grubii H99
Cryptococcus neoformans [18] = assay: Antifungal activity against Cryptococcus neoformans H99 infected in ICR mouse assessed as reduction in brain fungal load at 20 mg/kg, po administered daily for 5 days; format: functional, organism-based; settings: var grubii H99
Cryptococcus neoformans [19] = assay: Antifungal activity against Cryptococcus neoformans H99 assessed as damaged cell membranes at 4 ug/ml after 24 hrs by TEM analysis; format: functional, organism-based; settings: var grubii H99
Cryptococcus neoformans [20] = assay: Antifungal activity against Cryptococcus neoformans H99 assessed as up-regulation of CDK1 expression at 2 to 4 ug/ml after 24 hrs by Western blot analysis; format: functional, organism-based; settings: var grubii H99
Cryptococcus neoformans [21] = assay: Induction of cell cycle arrest in Cryptococcus neoformans H99 assessed as accumulation at S phase at 4 ug/ml after 24 hrs by propidium iodide-staining based FACS analysis (reference value: 51.64%); format: functional, var grubii H99
Cryptococcus neoformans [22] = assay: Induction of cell cycle arrest in Cryptococcus neoformans H99 assessed as accumulation at G2 phase at 4 ug/ml after 24 hrs by propidium iodide-staining based FACS analysis (reference value: 3.86%); format: functional, var grubii H99
Cryptococcus neoformans [23] = assay: Induction of cell cycle arrest in Cryptococcus neoformans H99 assessed as accumulation at G1 phase at 4 ug/ml after 24 hrs by propidium iodide-staining based FACS analysis (reference value: 44.50%); format: functional, var grubii H99
Cryptococcus neoformans [24] = assay: Antifungal activity against Cryptococcus neoformans H99 assessed as cell wall collapse at 4 ug/ml after 24 hrs by TEM analysis; format: functional, organism-based; settings: var grubii H99

Cc1cccc2c3c(n(CCCOc4ccc(Cl)cc4)c12)CNCC3.O=C(O)C(F)(F)F
MIC80 (Cryptococcus neoformans [1]): 2 µg/mL

Fc1ccccc1OCCCn1c2c(c3ccccc31)CCNC2.O=C(O)C(F)(F)F
MIC80 (Cryptococcus neoformans [1]): 16 µg/mL

C1=CCN(CCCn2c3c(c4ccccc42)CCNC3)C1
MIC80 (Cryptococcus neoformans [1]): 64 µg/mL (≈ 227 µM)

c1ccc2c(c1)c1c(n2CCCN2CCCCC2)CNCC1
MIC80 (Cryptococcus neoformans [1]): 64 µg/mL (≈ 215 µM)

COc1ccccc1N1CCN(CCCn2c3c(c4ccccc42)CCNC3)CC1
MIC80 (Cryptococcus neoformans [1]): 64 µg/mL (≈ 158 µM)

Brc1cccc(NCCCn2c3c(c4ccccc42)CCNC3)c1.O=C(O)C(F)(F)F
MIC80 (Cryptococcus neoformans [1]): 8 µg/mL

Cc1ccc2c(c1)c1c(n2CCCOc2ccc(Cl)cc2)CNCC1.O=C(O)C(F)(F)F
MIC80 (Nannizzia gypsea): 8 µg/mL
MIC80 (Candida parapsilosis): 8 µg/mL
MIC80 (Candida albicans [2]): 4 µg/mL
MIC80 (Cryptococcus neoformans [3]): 2 µg/mL
MIC80 (Nakaseomyces glabratus): 2 µg/mL
MIC80 (Candida albicans [4]): 4 µg/mL
MIC80 (Aspergillus fumigatus): 8 µg/mL
MIC80 (Trichophyton rubrum): 4 µg/mL
half-life at 1 µM [5]: 11 min
inhibition (Cryptococcus neoformans [6]): Active
scaled CLint [7]: 477 mL/min/kg
solubility [8]: 57.5 µg/mL
inhibition (Cryptococcus neoformans [9]): inactive
MIC80 (Cryptococcus gattii): 2 µg/mL
inhibition of growth at 8 µg/mL (Cryptococcus neoformans [10]): 100%
MIC80 (Cryptococcus neoformans [11]): 2 µg/mL
Activity (HUVEC): Non-Toxic
Activity (Cryptococcus neoformans [12]): Active
PPB [13]: Active
Activity (Cryptococcus neoformans [1]; var grubii H99): Dose-dependent effect
MIC80 (Cryptococcus neoformans [1]): 1 µg/mL

COc1ccc(OCCCn2c3c(c4ccccc42)CCNC3)cc1.O=C(O)C(F)(F)F
MIC80 (Cryptococcus neoformans [1]): 16 µg/mL

Clc1ccc(OCCCn2c3c(c4ccc(Cl)cc42)CCNC3)cc1.O=C(O)C(F)(F)F
MIC80 (Cryptococcus neoformans [1]): 2 µg/mL

CN(C)CCn1c2c(c3ccccc31)CCNC2
MIC80 (Cryptococcus neoformans [1]): 64 µg/mL (≈ 263 µM)

Clc1ccc(OCCCn2c3c(c4ccc(Br)cc42)CCNC3)cc1.O=C(O)C(F)(F)F
MIC80 (Cryptococcus neoformans [1]): 2 µg/mL

c1ccc(CN2CCN(CCCn3c4c(c5ccccc53)CCNC4)CC2)cc1
MIC80 (Cryptococcus neoformans [1]): 32 µg/mL (≈ 82.4 µM)

Clc1ccc(OCCCn2c3c(c4cccc(Br)c42)CCNC3)cc1.O=C(O)C(F)(F)F
MIC80 (Cryptococcus neoformans [1]): 4 µg/mL

Clc1ccc(OCCCn2c3c(c4ccccc42)CCNC3)cc1.O=C(O)C(F)(F)F
MIC80 (Cryptococcus neoformans [1]): 4 µg/mL

c1ccc(C2CCN(CCCn3c4c(c5ccccc53)CCNC4)CC2)cc1
MIC80 (Cryptococcus neoformans [1]): 32 µg/mL (≈ 85.7 µM)

COc1ccc2c3c(n(CCCOc4ccc(Cl)cc4)c2c1)CNCC3.O=C(O)C(F)(F)F
MIC80 (Cryptococcus neoformans [1]): 2 µg/mL

COc1ccc2c(c1)c1c(n2CCCOc2ccc(Cl)cc2)CNCC1.O=C(O)C(F)(F)F
MIC80 (Cryptococcus neoformans [1]): 4 µg/mL

Cc1ccc2c3c(n(CCCOc4ccc(Cl)cc4)c2c1)CNCC3.O=C(O)C(F)(F)F
MIC80 (Cryptococcus neoformans [1]): 2 µg/mL

Fc1ccc2c3c(n(CCCOc4ccc(Cl)cc4)c2c1)CNCC3.O=C(O)C(F)(F)F
MIC80 (Cryptococcus neoformans [1]): 2 µg/mL

CCOc1ccc(NCCCn2c3c(c4ccccc42)CCNC3)cc1.O=C(O)C(F)(F)F
MIC80 (Cryptococcus neoformans [1]): 32 µg/mL

c1ccc(N2CCN(CCCn3c4c(c5ccccc53)CCNC4)CC2)cc1
MIC80 (Cryptococcus neoformans [1]): 32 µg/mL (≈ 85.4 µM)

CC1CCCN(CCCn2c3c(c4ccccc42)CCNC3)C1 (stereo not drawn)
MIC80 (Cryptococcus neoformans [1]): 32 µg/mL (≈ 103 µM)

Clc1ccc(OCCCn2c3c(c4cccc(Cl)c42)CCNC3)cc1.O=C(O)C(F)(F)F
MIC80 (Cryptococcus neoformans [1]): 2 µg/mL

COc1cccc(NCCCn2c3c(c4ccccc42)CCNC3)c1.O=C(O)C(F)(F)F
MIC80 (Cryptococcus neoformans [1]): 32 µg/mL

Brc1ccc(OCCCn2c3c(c4ccccc42)CCNC3)cc1.O=C(O)C(F)(F)F
MIC80 (Cryptococcus neoformans [1]): 4 µg/mL

COc1ccc(NCCCn2c3c(c4ccccc42)CCNC3)cc1.O=C(O)C(F)(F)F
MIC80 (Cryptococcus neoformans [1]): 32 µg/mL

c1ccc2c(c1)c1c(n2CCN2CCOCC2)CNCC1
MIC80 (Cryptococcus neoformans [1]): 64 µg/mL (≈ 224 µM)

OC(Cn1cncn1)(Cn1cncn1)c1ccc(F)cc1F [FLUCONAZOLE]
Activity (Cryptococcus neoformans [14]): inactive
MIC80 (Nannizzia gypsea): 16 µg/mL (≈ 52.2 µM)
MIC80 (Candida parapsilosis): 32 µg/mL (≈ 104 µM)
MIC80 (Candida albicans [2]): > 64 µg/mL
MIC80 (Cryptococcus neoformans [3]): 4 µg/mL (≈ 13.1 µM)
Activity (Cryptococcus neoformans [15]): inactive
MIC80 (Nakaseomyces glabratus): 4 µg/mL (≈ 13.1 µM)
Activity (Cryptococcus neoformans [16]): Active
Activity (Cryptococcus neoformans [17]): inactive
MIC80 (Candida albicans [4]): 32 µg/mL (≈ 104 µM)
Activity (Cryptococcus neoformans [18]): Active
MIC80 (Aspergillus fumigatus): > 64 µg/mL
MIC80 (Trichophyton rubrum): 2 µg/mL (≈ 6.53 µM)
Activity (Cryptococcus neoformans [19]): Active
inhibition (Cryptococcus neoformans [6]): inactive
Activity (Cryptococcus neoformans [20]): inactive
Activity (Cryptococcus neoformans [21]): 48.17%
MIC80 (Cryptococcus gattii): 4 µg/mL (≈ 13.1 µM)
MIC80 (Cryptococcus neoformans [11]): 2 µg/mL (≈ 6.53 µM)
Activity (Cryptococcus neoformans [22]): 0.96%
Activity (Cryptococcus neoformans [23]): 50.86%
Activity (Cryptococcus neoformans [24]): inactive
MIC80 (Cryptococcus neoformans [1]): 4 µg/mL (≈ 13.1 µM)

Fc1cccc2c1c1c(n2CCCOc2ccc(Cl)cc2)CNCC1.O=C(O)C(F)(F)F
MIC80 (Cryptococcus neoformans [1]): 4 µg/mL

Fc1cccc(OCCCn2c3c(c4ccccc42)CCNC3)c1.O=C(O)C(F)(F)F
MIC80 (Cryptococcus neoformans [1]): 8 µg/mL

Clc1ccc(OCCCn2c3c(c4c(Br)cccc42)CCNC3)cc1.O=C(O)C(F)(F)F
MIC80 (Cryptococcus neoformans [1]): 8 µg/mL
